Data on 15 compounds can be found in patent US20160168126A1, “CHEMICAL COMPOUNDS” (SYNGENTA LIMITED, priority 2013, published 2016).

In the assay the test system is a variety of test species. In words: Post-emergence herbicidal activity (glasshouse, sprayed 8 days after sowing, evaluated after 13 days). On Post-emergence herbicidal damage score, ABUTH (Abutilon theophrasti): key: 5=total damage to plant; 0=no damage to plant. On Post-emergence herbicidal damage score, AMARE (Amaranthus retroflexus): key: 5=total damage to plant; 0=no damage to plant. The format is in vivo. As to conditions: scale 0-5. The gist of the method:
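Seeds were sown in standard soil and cultivated for 8 days under controlled glasshouse conditions. Seedlings were then sprayed with an aqueous solution of the formulated compound containing 0.5% Tween 20. Injury was rated after a further 13 days, where 5 indicated total damage.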

On to `COC1=C(Cl)C(OC(C)=O)N(c2cc(C(C)(C)C)n(C)n2)C1=O` (stereo not drawn) [Compound F3, [1-(5-tert-butyl-1-methyl-pyrazol-3-yl)-3-chloro-4-methoxy-5-oxo-2H-pyrrol-2-yl] acetate], for which, under “1000 g/ha”, the “Post-emergence herbicidal damage score, ABUTH (Abutilon theophrasti)” value came out at 5; the “Post-emergence herbicidal damage score, ALOMY (Alopecurus myosuroides)” value was 5; the “Post-emergence herbicidal damage score, AMARE (Amaranthus retroflexus)” value is on record as 5; the “Post-emergence herbicidal damage score, ECHCG (Echinochloa crus-galli)” value is recorded as 5. Under “1000 g/ha”, the “Post-emergence herbicidal damage score, SETFA (Setaria faberi)” value came out at 5 and the “Post-emergence herbicidal damage score, ZEAMX (Zea mays)” value was 3.

Regarding `CC1=C(Cl)C(O)N(c2cc3n(n2)CCC3(C)C)C1=O` (stereo not drawn) [Compound G2], for the setting “250 g/ha”, the “Post-emergence herbicidal damage score, ABUTH (Abutilon theophrasti)” value came to 5; the “Post-emergence herbicidal damage score, ALOMY (Alopecurus myosuroides)” value came to 5; the “Post-emergence herbicidal damage score, AMARE (Amaranthus retroflexus)” value came out at 5; the “Post-emergence herbicidal damage score, ECHCG (Echinochloa crus-galli)” value is reported as 5. For the same compound, for the setting “250 g/ha”, the “Post-emergence herbicidal damage score, SETFA (Setaria faberi)” value was 5 and the “Post-emergence herbicidal damage score, ZEAMX (Zea mays)” value is recorded as 4.

On to `CC1=C(Cl)C(O)N(c2cc3n(n2)CCCC3(C)C)C1=O` (stereo not drawn) [Compound G4], for which, under “1000 g/ha”, the “Post-emergence herbicidal damage score, ABUTH (Abutilon theophrasti)” value is given as 5; the “Post-emergence herbicidal damage score, ALOMY (Alopecurus myosuroides)” value came out at 5; the “Post-emergence herbicidal damage score, AMARE (Amaranthus retroflexus)” value was found to be 5; the “Post-emergence herbicidal damage score, ECHCG (Echinochloa crus-galli)” value was found to be 5. Under “1000 g/ha”, the “Post-emergence herbicidal damage score, SETFA (Setaria faberi)” value is on record as 5 and the “Post-emergence herbicidal damage score, ZEAMX (Zea mays)” value is listed as 2.

On to `CC1=C(Cl)C(O)N(c2cc3n(n2)CCSC3(C)C)C1=O` (stereo not drawn) [Compound G6], for which, where the note is “1000 g/ha”, the “Post-emergence herbicidal damage score, ABUTH (Abutilon theophrasti)” value is 5; the “Post-emergence herbicidal damage score, ALOMY (Alopecurus myosuroides)” value stood at 4; the “Post-emergence herbicidal damage score, AMARE (Amaranthus retroflexus)” value amounted to 5; the “Post-emergence herbicidal damage score, ECHCG (Echinochloa crus-galli)” value is given as 4. Also, for the setting “1000 g/ha”, the “Post-emergence herbicidal damage score, SETFA (Setaria faberi)” value is listed as 4 and the “Post-emergence herbicidal damage score, ZEAMX (Zea mays)” value is listed as 0.

Consider `CC1=C(Br)C(O)N(c2cc(C(C)(C)C)n(C)n2)C1=O` (stereo not drawn) [Compound H1], for which, for the setting “1000 g/ha”, the “Post-emergence herbicidal damage score, ABUTH (Abutilon theophrasti)” value was found to be 5; the “Post-emergence herbicidal damage score, ALOMY (Alopecurus myosuroides)” value amounted to 4; the “Post-emergence herbicidal damage score, AMARE (Amaranthus retroflexus)” value is 5; the “Post-emergence herbicidal damage score, ECHCG (Echinochloa crus-galli)” value turned out to be 5. Under “1000 g/ha”, the “Post-emergence herbicidal damage score, SETFA (Setaria faberi)” value worked out at 3 and the “Post-emergence herbicidal damage score, ZEAMX (Zea mays)” value was 1.

Take `CC1=C(Br)C(O)N(c2cc(C(C)(C)C)[nH]n2)C1=O` (stereo not drawn) [Compound H2]: under “1000 g/ha”, the “Post-emergence herbicidal damage score, ABUTH (Abutilon theophrasti)” value came out at 5; the “Post-emergence herbicidal damage score, ALOMY (Alopecurus myosuroides)” value came to 3; the “Post-emergence herbicidal damage score, AMARE (Amaranthus retroflexus)” value was found to be 5; the “Post-emergence herbicidal damage score, ECHCG (Echinochloa crus-galli)” value came out at 2. Moreover, where the note is “1000 g/ha”, the “Post-emergence herbicidal damage score, SETFA (Setaria faberi)” value is listed as 4 and the “Post-emergence herbicidal damage score, ZEAMX (Zea mays)” value is 2.

As for `CC(C)=CCc1cc(N2C(=O)C(C)=C(Br)C2O)nn1C` (stereo not drawn) [Compound H3], where the note is “1000 g/ha”, the “Post-emergence herbicidal damage score, ABUTH (Abutilon theophrasti)” value turned out to be 0; the “Post-emergence herbicidal damage score, ALOMY (Alopecurus myosuroides)” value was 0; the “Post-emergence herbicidal damage score, AMARE (Amaranthus retroflexus)” value is listed as 0; the “Post-emergence herbicidal damage score, ECHCG (Echinochloa crus-galli)” value is recorded as 0. Moreover, for the setting “1000 g/ha”, the “Post-emergence herbicidal damage score, SETFA (Setaria faberi)” value came out at 0 and the “Post-emergence herbicidal damage score, ZEAMX (Zea mays)” value was 0.

`CC1=C(Br)C(O)N(c2cc(C(F)(F)F)n(C)n2)C1=O` (stereo not drawn) [Compound H4]: under “1000 g/ha”, the “Post-emergence herbicidal damage score, ABUTH (Abutilon theophrasti)” value is 5; the “Post-emergence herbicidal damage score, ALOMY (Alopecurus myosuroides)” value is given as 5; the “Post-emergence herbicidal damage score, AMARE (Amaranthus retroflexus)” value was 5; the “Post-emergence herbicidal damage score, ECHCG (Echinochloa crus-galli)” value was 2. Under “1000 g/ha”, the “Post-emergence herbicidal damage score, SETFA (Setaria faberi)” value worked out at 1 and the “Post-emergence herbicidal damage score, ZEAMX (Zea mays)” value was found to be 0.

For the compound `CC1=C(Br)C(O)N(c2nn(C)c(C(C)(C)C)c2C#N)C1=O` (stereo not drawn) [Compound H5], for the setting “1000 g/ha”, the “Post-emergence herbicidal damage score, ABUTH (Abutilon theophrasti)” value turned out to be 2; the “Post-emergence herbicidal damage score, ALOMY (Alopecurus myosuroides)” value stood at 1; the “Post-emergence herbicidal damage score, AMARE (Amaranthus retroflexus)” value is recorded as 2; the “Post-emergence herbicidal damage score, ECHCG (Echinochloa crus-galli)” value was 1. Moreover, where the note is “1000 g/ha”, the “Post-emergence herbicidal damage score, SETFA (Setaria faberi)” value amounted to 1 and the “Post-emergence herbicidal damage score, ZEAMX (Zea mays)” value was found to be 0.

On to `CCC1=C(Br)C(O)N(c2nn(C)c(C(C)(C)C)c2C#N)C1=O` (stereo not drawn) [Compound H6], for which, under “1000 g/ha”, the “Post-emergence herbicidal damage score, ABUTH (Abutilon theophrasti)” value is recorded as 1; the “Post-emergence herbicidal damage score, ALOMY (Alopecurus myosuroides)” value was found to be 2; the “Post-emergence herbicidal damage score, AMARE (Amaranthus retroflexus)” value was 2; the “Post-emergence herbicidal damage score, ECHCG (Echinochloa crus-galli)” value stood at 1. Under “1000 g/ha”, the “Post-emergence herbicidal damage score, SETFA (Setaria faberi)” value turned out to be 2 and the “Post-emergence herbicidal damage score, ZEAMX (Zea mays)” value amounted to 0.

In the case of `CC1=C(Br)C(O)N(c2cc3n(n2)CCC3(C)C)C1=O` (stereo not drawn) [Compound H7], where the note is “1000 g/ha”, the “Post-emergence herbicidal damage score, ABUTH (Abutilon theophrasti)” value is given as 5; the “Post-emergence herbicidal damage score, ALOMY (Alopecurus myosuroides)” value came out at 5; the “Post-emergence herbicidal damage score, AMARE (Amaranthus retroflexus)” value was found to be 4; the “Post-emergence herbicidal damage score, ECHCG (Echinochloa crus-galli)” value stood at 3. Also, under “1000 g/ha”, the “Post-emergence herbicidal damage score, SETFA (Setaria faberi)” value was 4 and the “Post-emergence herbicidal damage score, ZEAMX (Zea mays)” value is 1.

Regarding `CC1=C(Br)C(O)N(c2cc3n(n2)CCCC3(C)C)C1=O` (stereo not drawn) [Compound H8], under “1000 g/ha”, the “Post-emergence herbicidal damage score, ABUTH (Abutilon theophrasti)” value is 5; the “Post-emergence herbicidal damage score, ALOMY (Alopecurus myosuroides)” value was found to be 5; the “Post-emergence herbicidal damage score, AMARE (Amaranthus retroflexus)” value worked out at 5; the “Post-emergence herbicidal damage score, ECHCG (Echinochloa crus-galli)” value was 4. Further, for the setting “1000 g/ha”, the “Post-emergence herbicidal damage score, SETFA (Setaria faberi)” value is on record as 4 and the “Post-emergence herbicidal damage score, ZEAMX (Zea mays)” value was found to be 0.

Take `CC1=C(Br)C(O)N(c2cc3n(n2)CCSC3(C)C)C1=O` (stereo not drawn) [Compound H9]: for the setting “1000 g/ha”, the “Post-emergence herbicidal damage score, ABUTH (Abutilon theophrasti)” value is reported as 4; the “Post-emergence herbicidal damage score, ALOMY (Alopecurus myosuroides)” value came out at 5; the “Post-emergence herbicidal damage score, AMARE (Amaranthus retroflexus)” value stood at 4; the “Post-emergence herbicidal damage score, ECHCG (Echinochloa crus-galli)” value turned out to be 3. Further, where the note is “1000 g/ha”, the “Post-emergence herbicidal damage score, SETFA (Setaria faberi)” value was 3 and the “Post-emergence herbicidal damage score, ZEAMX (Zea mays)” value is 0.

Regarding `CC1=C(Br)C(O)N(c2nn(C)c3c2CCC3(C)C)C1=O` (stereo not drawn) [Compound H10], for the setting “1000 g/ha”, the “Post-emergence herbicidal damage score, ABUTH (Abutilon theophrasti)” value stood at 5; the “Post-emergence herbicidal damage score, ALOMY (Alopecurus myosuroides)” value was 5; the “Post-emergence herbicidal damage score, AMARE (Amaranthus retroflexus)” value is 5; the “Post-emergence herbicidal damage score, ECHCG (Echinochloa crus-galli)” value is on record as 4. For the same compound, for the setting “1000 g/ha”, the “Post-emergence herbicidal damage score, SETFA (Setaria faberi)” value was determined as 5 and the “Post-emergence herbicidal damage score, ZEAMX (Zea mays)” value is reported as 3.

Regarding `COC1=C(C)C(=O)N(c2cc(C(C)(C)C)[nH]n2)C1O` (stereo not drawn) [Compound I1], where the note is “250 g/ha”, the “Post-emergence herbicidal damage score, ABUTH (Abutilon theophrasti)” value is recorded as 5; the “Post-emergence herbicidal damage score, ALOMY (Alopecurus myosuroides)” value worked out at 3; the “Post-emergence herbicidal damage score, AMARE (Amaranthus retroflexus)” value is given as 5; the “Post-emergence herbicidal damage score, ECHCG (Echinochloa crus-galli)” value is on record as 3. Also, where the note is “250 g/ha”, the “Post-emergence herbicidal damage score, SETFA (Setaria faberi)” value is given as 5 and the “Post-emergence herbicidal damage score, ZEAMX (Zea mays)” value came out at 1.
